Measurements as given in patent US7138361B2, “Herbicidal heterocycles” (E. I. du Pont de Nemours and Company, priority 2000, dated 2006).

Assays:
Format in all cases: in vivo
[1] = tested on: Surinam grass (Brachiaria decumbens); assay: Test C postemergence
From the text: (§1) Seeds of plant species selected from bermudagrass (Cynodon dactylon), Surinam grass (Brachiaria decumbens), cocklebur (Xanthium strumarium), corn (Zea mays), crabgrass (Digitaria sanguinalis), woolly cupgrass (Eriochloa villosa), giant foxtail (Setaria faberii), goosegrass (Eleusine indica), johnsongrass (Sorghum halepense), kochia (Kochia scoparia), lambsquarters (Chenopodium album), morningglory (Ipomoea hederacea), yellow nutsedge (Cyperus esculentus), pigweed (Amaranthus retroflexus), common ragweed (Ambrosia elatior), soybean (Glycine max) and velvetleaf (Abutilon theophrasti) were planted and treated preemergence with test chemicals formulated in a non-phytotoxic solvent mixture which included a surfactant.
(§2) At the same time, plants selected from these crop and weed species and also winter barley (Hordeum vulgare), blackgrass (Alopecurus myosuroides), canary grass (Phalaris minor), chickweed (Stellaria media), downy brome (Bromus tectorum), green foxtail (Setaria viridis), Italian ryegrass (Lolium multiflorum), wheat (Triticum aestivum), wild oat (Avena fatua) and windgrass (Apera spica-venti) were treated with postemergence applications of some of the test chemicals formulated in the same manner. Plants ranged in height from 2 to 18 cm (1- to 4-leaf stage) for postemergence treatments. Plant species in the flooded paddy test consisted of rice (Oryza saliva), smallflower flatsedge (Cyperus difformis), duck salad (Heteranthera limosa) and barnyardgrass (Echinochloa crus-galli) grown to the 2-leaf stage for testing. Treated plants and controls were maintained in a greenhouse for 12 to 14 days, after which time all species were compared to controls and visually evaluated. Plant response ratings, summarized in Table C, are based on a scale of 0 to 100 where 0 is no effect and 100 is complete control. A dash (-) response means no test result.

[2] = tested on: giant foxtail (Setaria faberii); assay: Test C postemergence
From the text: as §1, §2

[3] = tested on: lambsquarters (Chenopodium album); assay: Test C postemergence
From the text: as §1, §2

[4] = tested on: bermudagrass (Cynodon dactylon); assay: Test C postemergence
From the text: as §1, §2

[5] = tested on: morningglory (Ipomoea hederacea); assay: Test C postemergence
From the text: as §1, §2

corn (Zea mays) = assay: Test C postemergence
From the text: as §1, §2

[6] = tested on: common ragweed (Ambrosia elatior); assay: Test C postemergence
From the text: as §1, §2

[7] = tested on: pigweed (Amaranthus retroflexus); assay: Test C postemergence
From the text: as §1, §2

[8] = tested on: yellow nutsedge (Cyperus esculentus); assay: Test C preemergence; details: for Plant response rating (0 to 100), Nutsedge: Rate 500 g/ha, visual evaluation after 12 to 14 days
How it was run: (§3)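 Visual injury scores of 0–100, with 100 meaning complete control, were given relative to controls after 12–14 days in the greenhouse. Treatments used a surfactant-containing non-phytotoxic solvent formulation, sprayed on seeded pots preemergence or on 1–4-leaf plants of 2–18 cm postemergence.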

[9] = tested on: goosegrass (Eleusine indica); assay: Test C preemergence; details: for Plant response rating (0 to 100), Goosegrass: Rate 500 g/ha, visual evaluation after 12 to 14 days
How it was run: as §3

[10] = tested on: crabgrass (Digitaria sanguinalis); assay: Test C preemergence; details: for Plant response rating (0 to 100), Crabgrass: Rate 500 g/ha, visual evaluation after 12 to 14 days
How it was run: as §3

[11] = tested on: morningglory (Ipomoea hederacea); assay: Test C preemergence; details: for Plant response rating (0 to 100), Morningglory: Rate 500 g/ha, visual evaluation after 12 to 14 days
How it was run: as §3

Sunflower = assay: Test C preemergence; details: Rate 62 g/ha, scale 0 to 100
[12] = Rate 125 g/ha, scale 0 to 100, 0 no effect, 100 complete control
[13] = Rate 250 g/ha, scale 0 to 100 (0 no effect, 100 complete control)
[14] = Rate 500 g/ha, scale 0 to 100 (0 no effect, 100 complete control)
[15] = preemergence, Rate 62 g/ha, scale 0 to 100
[16] = preemergence, Rate 250 g/ha, scale 0 to 100, 0 no effect, 100 complete control

CCC(CC)c1ccn(C2OCN(c3cccc(OC(F)(F)F)c3)C2=O)n1 (stereo not shown) [Compound 68]
70: Plant response rating, Morningglory [5, 14] | Plant response rating, Pigweed [7, 12] | Plant response rating, Pigweed [7, 13]
0: Plant response rating, Surinam grass ([1]; Rate 62 g/ha, scale 0 to 100) | Plant response rating, Surinam grass [1, 12] | Plant response rating, Surinam grass [1, 13] | Plant response rating, Surinam grass [1, 14] | Plant response rating, Foxtail, Giant ([2]; Rate 62 g/ha, scale 0 to 100) | Plant response rating, Foxtail, Giant [2, 12] | Plant response rating, Foxtail, Giant [2, 13] | Plant response rating, Foxtail, Giant [2, 14] | Plant response rating, Bermudagrass ([4]; Rate 62 g/ha, scale 0 to 100) | Plant response rating, Bermudagrass [4, 12] | Plant response rating, Corn (corn (Zea mays); Rate 62 g/ha, scale 0 to 100) | Plant response rating, Corn (corn (Zea mays); [12]) | Plant response rating, Corn (corn (Zea mays); [13]) | Plant response rating, Corn (corn (Zea mays); [14]) | Plant response rating, Ragweed, Common ([6]; Rate 62 g/ha, scale 0 to 100) | Plant response rating, Ragweed, Common [6, 12] | Plant response rating, Ragweed, Common [6, 13]
40: Plant response rating, Bermudagrass [4, 14]
100: Plant response rating, Lambsquarters [3, 14] | Plant response rating, Pigweed [7, 14]
60: Plant response rating, Lambsquarters ([3]; Rate 62 g/ha, scale 0 to 100) | Plant response rating, Morningglory [5, 12] | Plant response rating, Morningglory [5, 13] | Plant response rating, Pigweed ([7]; Rate 62 g/ha, scale 0 to 100)
80: Plant response rating, Lambsquarters [3, 12] | Plant response rating, Lambsquarters [3, 13]
30: Plant response rating, Ragweed, Common [6, 14]
50: Plant response rating, Morningglory ([5]; Rate 62 g/ha, scale 0 to 100)
20: Plant response rating, Bermudagrass [4, 13]

CCCC(C)c1ccn(C2CCN(c3ccc(Cl)c(OC)c3)C2=O)n1 (stereo not shown) [Compound 121]
20: Plant response rating, Foxtail, Giant [2, 13] | Plant response rating, Pigweed ([7]; Rate 62 g/ha, scale 0 to 100)
90: Plant response rating, Lambsquarters ([3]; Rate 62 g/ha, scale 0 to 100) | Plant response rating, Pigweed [7, 14]
50: Plant response rating, Morningglory ([5]; Rate 62 g/ha, scale 0 to 100) | Plant response rating, Morningglory [11, 16]
10: Plant response rating, Morningglory [11, 12] | Plant response rating, Sunflower (Sunflower)
100: Plant response rating, Lambsquarters [3, 13] | Plant response rating, Lambsquarters [3, 14] | Plant response rating, Morningglory [5, 14] | Plant response rating, Goosegrass [9, 12] | Plant response rating, Goosegrass [9, 15] | Plant response rating (0 to 100), Goosegrass ([9]; preemergence) | Plant response rating, Goosegrass [9, 16] | Plant response rating, Crabgrass [10, 12] | Plant response rating, Crabgrass [10, 15] | Plant response rating (0 to 100), Crabgrass ([10]; preemergence) | Plant response rating, Crabgrass [10, 16]
60: Plant response rating, Foxtail, Giant [2, 14]
40: Plant response rating, Corn (corn (Zea mays); [14])
70: Plant response rating, Morningglory [5, 13] | Plant response rating, Pigweed [7, 13] | Plant response rating (0 to 100), Morningglory ([11]; preemergence)
0: Plant response rating, Surinam grass ([1]; Rate 62 g/ha, scale 0 to 100) | Plant response rating, Surinam grass [1, 12] | Plant response rating, Surinam grass [1, 13] | Plant response rating, Surinam grass [1, 14] | Plant response rating, Foxtail, Giant ([2]; Rate 62 g/ha, scale 0 to 100) | Plant response rating, Bermudagrass ([4]; Rate 62 g/ha, scale 0 to 100) | Plant response rating, Bermudagrass [4, 12] | Plant response rating, Bermudagrass [4, 13] | Plant response rating, Bermudagrass [4, 14] | Plant response rating, Corn (corn (Zea mays); Rate 62 g/ha, scale 0 to 100) | Plant response rating, Corn (corn (Zea mays); [13]) | Plant response rating, Corn (corn (Zea mays); scale 0 to 100) | Plant response rating, Nutsedge [8, 12] | Plant response rating, Nutsedge [8, 15] | Plant response rating (0 to 100), Nutsedge ([8]; preemergence) | Plant response rating, Nutsedge [8, 16] | Plant response rating, Morningglory [11, 15]

COc1cc(N2CCC(n3ccc(C(C)C)n3)C2=O)ccc1Cl (stereo not shown) [Compound 120]
30: Plant response rating, Corn (corn (Zea mays); Rate 62 g/ha, scale 0 to 100) | Plant response rating, Corn (corn (Zea mays); [13]) | Plant response rating, Corn (corn (Zea mays); scale 0 to 100)
0: Plant response rating, Surinam grass ([1]; Rate 62 g/ha, scale 0 to 100) | Plant response rating, Surinam grass [1, 12] | Plant response rating, Surinam grass [1, 13] | Plant response rating, Surinam grass [1, 14] | Plant response rating, Foxtail, Giant ([2]; Rate 62 g/ha, scale 0 to 100) | Plant response rating, Foxtail, Giant [2, 13] | Plant response rating, Bermudagrass ([4]; Rate 62 g/ha, scale 0 to 100) | Plant response rating, Bermudagrass [4, 12] | Plant response rating, Bermudagrass [4, 13] | Plant response rating, Morningglory ([5]; Rate 62 g/ha, scale 0 to 100) | Plant response rating, Pigweed ([7]; Rate 62 g/ha, scale 0 to 100)
50: Plant response rating, Lambsquarters ([3]; Rate 62 g/ha, scale 0 to 100) | Plant response rating, Corn (corn (Zea mays); [14])
90: Plant response rating, Lambsquarters [3, 13] | Plant response rating, Morningglory [5, 13] | Plant response rating, Pigweed [7, 14]
80: Plant response rating, Nutsedge [8, 12]
40: Plant response rating, Nutsedge [8, 15]
70: Plant response rating, Foxtail, Giant [2, 14] | Plant response rating, Bermudagrass [4, 14]
100: Plant response rating, Lambsquarters [3, 14] | Plant response rating, Morningglory [5, 14] | Plant response rating (0 to 100), Nutsedge ([8]; preemergence) | Plant response rating, Nutsedge [8, 16] | Plant response rating, Goosegrass [9, 12] | Plant response rating, Goosegrass [9, 15] | Plant response rating (0 to 100), Goosegrass ([9]; preemergence) | Plant response rating, Goosegrass [9, 16] | Plant response rating, Crabgrass [10, 12] | Plant response rating, Crabgrass [10, 15] | Plant response rating (0 to 100), Crabgrass ([10]; preemergence) | Plant response rating, Crabgrass [10, 16] | Plant response rating (0 to 100), Morningglory ([11]; preemergence) | Plant response rating, Morningglory [11, 16]
60: Plant response rating, Pigweed [7, 13] | Plant response rating, Morningglory [11, 12] | Plant response rating, Morningglory [11, 15] | Plant response rating, Sunflower (Sunflower)

Cc1ccc(N2CCC(n3ccc(C(C)(C)C)n3)C2=O)cc1I (stereo not shown) [Compound 122]
0: Plant response rating, Surinam grass ([1]; Rate 62 g/ha, scale 0 to 100) | Plant response rating, Surinam grass [1, 12] | Plant response rating, Surinam grass [1, 13] | Plant response rating, Surinam grass [1, 14] | Plant response rating, Foxtail, Giant ([2]; Rate 62 g/ha, scale 0 to 100) | Plant response rating, Foxtail, Giant [2, 13] | Plant response rating, Bermudagrass ([4]; Rate 62 g/ha, scale 0 to 100) | Plant response rating, Bermudagrass [4, 12] | Plant response rating, Bermudagrass [4, 13] | Plant response rating, Bermudagrass [4, 14] | Plant response rating, Corn (corn (Zea mays); Rate 62 g/ha, scale 0 to 100) | Plant response rating, Corn (corn (Zea mays); [13]) | Plant response rating, Corn (corn (Zea mays); [14]) | Plant response rating, Corn (corn (Zea mays); scale 0 to 100) | Plant response rating, Nutsedge [8, 12] | Plant response rating, Nutsedge [8, 15] | Plant response rating (0 to 100), Nutsedge ([8]; preemergence) | Plant response rating, Nutsedge [8, 16] | Plant response rating, Morningglory [11, 12] | Plant response rating, Morningglory [11, 15] | Plant response rating, Sunflower (Sunflower)
90: Plant response rating, Morningglory [5, 13] | Plant response rating, Goosegrass [9, 15] | Plant response rating, Crabgrass [10, 15]
40: Plant response rating, Foxtail, Giant [2, 14] | Plant response rating, Pigweed ([7]; Rate 62 g/ha, scale 0 to 100)
100: Plant response rating, Lambsquarters ([3]; Rate 62 g/ha, scale 0 to 100) | Plant response rating, Lambsquarters [3, 13] | Plant response rating, Lambsquarters [3, 14] | Plant response rating, Morningglory [5, 14] | Plant response rating, Pigweed [7, 13] | Plant response rating, Pigweed [7, 14] | Plant response rating, Goosegrass [9, 12] | Plant response rating (0 to 100), Goosegrass ([9]; preemergence) | Plant response rating, Goosegrass [9, 16] | Plant response rating, Crabgrass [10, 12] | Plant response rating (0 to 100), Crabgrass ([10]; preemergence) | Plant response rating, Crabgrass [10, 16] | Plant response rating, Morningglory [11, 16]
20: Plant response rating, Morningglory ([5]; Rate 62 g/ha, scale 0 to 100)
